Measurements taken from ChEMBL document CHEMBL1145293, “Synthesis and SAR of GlyT1 inhibitors derived from a series of N-((4-(morpholine-4-carbonyl)-1-(propylsulfonyl)piperidin-4-yl)methyl)benzamides” (Bioorg Med Chem Lett, 2006).
Converted amounts (≈) assume the structure as drawn.

How the values were obtained:
[1] = molecular target: T1, Sodium- and chloride-dependent glycine transporter 2 (Homo sapiens, UniProt Q9Y345); assay: Inhibition of human GlyT2
T1 sequence (Q9Y345 whole entry): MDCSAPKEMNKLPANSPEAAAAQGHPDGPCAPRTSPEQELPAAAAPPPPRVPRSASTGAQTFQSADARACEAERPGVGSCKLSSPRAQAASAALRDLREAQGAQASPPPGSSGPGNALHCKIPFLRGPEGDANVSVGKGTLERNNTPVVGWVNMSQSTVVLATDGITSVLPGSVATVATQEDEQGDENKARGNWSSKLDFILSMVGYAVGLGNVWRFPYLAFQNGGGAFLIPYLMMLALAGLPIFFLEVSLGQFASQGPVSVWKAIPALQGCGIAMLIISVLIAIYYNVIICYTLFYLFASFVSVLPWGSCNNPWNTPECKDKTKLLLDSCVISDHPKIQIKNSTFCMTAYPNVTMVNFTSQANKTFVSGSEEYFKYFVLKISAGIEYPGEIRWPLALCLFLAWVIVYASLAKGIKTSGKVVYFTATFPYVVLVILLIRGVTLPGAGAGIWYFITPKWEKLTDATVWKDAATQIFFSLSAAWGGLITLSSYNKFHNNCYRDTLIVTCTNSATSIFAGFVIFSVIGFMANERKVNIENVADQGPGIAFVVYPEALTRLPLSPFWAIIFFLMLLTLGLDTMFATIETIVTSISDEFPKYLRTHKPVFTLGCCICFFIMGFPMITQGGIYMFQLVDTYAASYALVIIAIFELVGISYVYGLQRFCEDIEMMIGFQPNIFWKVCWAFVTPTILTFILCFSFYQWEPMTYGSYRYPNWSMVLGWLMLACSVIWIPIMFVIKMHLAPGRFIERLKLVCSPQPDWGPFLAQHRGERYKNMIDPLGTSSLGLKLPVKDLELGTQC

[2] = molecular target: T2, Sodium- and chloride-dependent glycine transporter 1 (Homo sapiens, UniProt P48067); assay: Inhibition of human GlyT1
T2 sequence (P48067 whole entry): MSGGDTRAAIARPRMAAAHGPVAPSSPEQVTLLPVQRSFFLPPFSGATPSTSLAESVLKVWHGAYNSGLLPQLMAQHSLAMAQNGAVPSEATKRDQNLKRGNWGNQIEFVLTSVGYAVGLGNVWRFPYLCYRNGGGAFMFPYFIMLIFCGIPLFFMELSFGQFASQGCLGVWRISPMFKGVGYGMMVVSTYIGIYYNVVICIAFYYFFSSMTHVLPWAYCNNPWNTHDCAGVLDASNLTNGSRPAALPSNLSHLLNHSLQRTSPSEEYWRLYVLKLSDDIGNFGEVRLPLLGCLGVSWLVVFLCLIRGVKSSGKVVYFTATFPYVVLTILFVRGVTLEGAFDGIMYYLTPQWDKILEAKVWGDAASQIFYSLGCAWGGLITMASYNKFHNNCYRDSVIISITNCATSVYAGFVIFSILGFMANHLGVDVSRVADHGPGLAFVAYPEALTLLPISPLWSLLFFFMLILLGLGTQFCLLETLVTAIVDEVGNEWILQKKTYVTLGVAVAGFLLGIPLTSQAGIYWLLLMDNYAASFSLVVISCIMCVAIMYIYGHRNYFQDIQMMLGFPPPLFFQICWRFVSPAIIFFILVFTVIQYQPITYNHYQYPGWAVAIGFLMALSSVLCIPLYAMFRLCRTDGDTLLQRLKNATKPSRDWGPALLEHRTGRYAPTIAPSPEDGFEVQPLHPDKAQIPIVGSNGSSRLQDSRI

[3] = molecular target: T3, Sodium- and chloride-dependent taurine transporter (Homo sapiens, UniProt P31641); assay: Inhibition of human TauT
T3 sequence (P31641 whole entry): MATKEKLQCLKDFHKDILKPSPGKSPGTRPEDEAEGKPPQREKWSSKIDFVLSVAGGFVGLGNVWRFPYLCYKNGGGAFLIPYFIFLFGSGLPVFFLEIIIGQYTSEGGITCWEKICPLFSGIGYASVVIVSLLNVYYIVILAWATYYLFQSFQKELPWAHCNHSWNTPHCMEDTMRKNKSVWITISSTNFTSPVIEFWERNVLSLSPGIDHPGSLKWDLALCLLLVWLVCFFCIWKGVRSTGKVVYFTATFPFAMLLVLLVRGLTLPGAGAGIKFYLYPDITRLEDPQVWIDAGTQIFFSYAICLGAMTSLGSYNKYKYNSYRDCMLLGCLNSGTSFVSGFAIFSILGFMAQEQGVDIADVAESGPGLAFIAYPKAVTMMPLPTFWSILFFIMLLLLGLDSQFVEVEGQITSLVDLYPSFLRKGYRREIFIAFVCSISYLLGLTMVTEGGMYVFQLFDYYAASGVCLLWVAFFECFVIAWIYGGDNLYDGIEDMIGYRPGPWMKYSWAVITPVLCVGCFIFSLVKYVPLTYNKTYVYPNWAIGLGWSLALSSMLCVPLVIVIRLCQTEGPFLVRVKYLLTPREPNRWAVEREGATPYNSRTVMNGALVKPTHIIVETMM

[4] = Aqueous solubility of the compound; type: physicochemical
[5] = Partition coefficient, log P of the compound; type: physicochemical; settings: octanol/water
Cytochrome P450 3A4 = Cytochrome P450 3A4 (Homo sapiens, UniProt P08684); assay: Inhibition of CYP3A4; type: ADME
Chain of Cytochrome P450 3A4 (P08684 whole entry): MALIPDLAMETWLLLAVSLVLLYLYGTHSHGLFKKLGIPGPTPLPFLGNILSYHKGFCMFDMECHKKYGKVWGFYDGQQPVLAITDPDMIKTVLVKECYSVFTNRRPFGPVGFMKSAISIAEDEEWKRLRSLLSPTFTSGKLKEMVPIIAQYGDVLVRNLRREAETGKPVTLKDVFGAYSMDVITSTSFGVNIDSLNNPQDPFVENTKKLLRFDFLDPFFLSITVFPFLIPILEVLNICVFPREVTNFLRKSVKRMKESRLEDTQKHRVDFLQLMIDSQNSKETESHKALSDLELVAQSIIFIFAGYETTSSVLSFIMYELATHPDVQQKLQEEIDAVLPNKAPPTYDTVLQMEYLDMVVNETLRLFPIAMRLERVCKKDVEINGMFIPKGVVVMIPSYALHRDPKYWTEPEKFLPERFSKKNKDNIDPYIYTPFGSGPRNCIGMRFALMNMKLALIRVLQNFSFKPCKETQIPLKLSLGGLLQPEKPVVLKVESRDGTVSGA

Caco-2 [6] = assay: Ratio of permeability from basolateral to apical over apical to basolateral side of Caco-2 cell expressing human p-glycoprotein; type: ADME, cell-based
Cytochrome P450 2C9 = Cytochrome P450 2C9 (Homo sapiens, UniProt P11712); assay: Inhibition of CYP2C9; type: ADME
Chain of Cytochrome P450 2C9 (P11712 whole entry): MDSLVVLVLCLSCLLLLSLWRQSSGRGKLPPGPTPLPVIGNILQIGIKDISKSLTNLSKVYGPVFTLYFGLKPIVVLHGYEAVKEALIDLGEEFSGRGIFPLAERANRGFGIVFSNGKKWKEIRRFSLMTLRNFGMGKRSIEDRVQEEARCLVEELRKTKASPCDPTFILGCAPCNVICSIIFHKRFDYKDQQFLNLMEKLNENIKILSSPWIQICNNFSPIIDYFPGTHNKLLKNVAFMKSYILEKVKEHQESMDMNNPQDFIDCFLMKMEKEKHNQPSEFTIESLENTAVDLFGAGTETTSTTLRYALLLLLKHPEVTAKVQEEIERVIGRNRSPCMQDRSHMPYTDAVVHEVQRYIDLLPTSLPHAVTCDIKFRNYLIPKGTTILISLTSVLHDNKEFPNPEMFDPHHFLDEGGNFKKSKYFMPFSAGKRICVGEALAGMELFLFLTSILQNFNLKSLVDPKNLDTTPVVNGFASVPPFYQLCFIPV

[7] = Half life in rat; type: ADME, organism-based; settings: in vivo
Caco-2 [8] = assay: Ratio of permeability from basolateral to apical over apical to basolateral side of Caco-2 cell expressing mouse p-glycoprotein; type: ADME, cell-based; settings: human
[9] = Apparent permeability in Caco-2 cells; type: ADME, cell-based; settings: human
[10] = Clearance in rat; type: ADME, organism-based; settings: in vivo
Cytochrome P450 2D6 = Cytochrome P450 2D6 (Homo sapiens, UniProt P10635); assay: Inhibition of CYP2D6; type: ADME
Chain of Cytochrome P450 2D6 (P10635 whole entry): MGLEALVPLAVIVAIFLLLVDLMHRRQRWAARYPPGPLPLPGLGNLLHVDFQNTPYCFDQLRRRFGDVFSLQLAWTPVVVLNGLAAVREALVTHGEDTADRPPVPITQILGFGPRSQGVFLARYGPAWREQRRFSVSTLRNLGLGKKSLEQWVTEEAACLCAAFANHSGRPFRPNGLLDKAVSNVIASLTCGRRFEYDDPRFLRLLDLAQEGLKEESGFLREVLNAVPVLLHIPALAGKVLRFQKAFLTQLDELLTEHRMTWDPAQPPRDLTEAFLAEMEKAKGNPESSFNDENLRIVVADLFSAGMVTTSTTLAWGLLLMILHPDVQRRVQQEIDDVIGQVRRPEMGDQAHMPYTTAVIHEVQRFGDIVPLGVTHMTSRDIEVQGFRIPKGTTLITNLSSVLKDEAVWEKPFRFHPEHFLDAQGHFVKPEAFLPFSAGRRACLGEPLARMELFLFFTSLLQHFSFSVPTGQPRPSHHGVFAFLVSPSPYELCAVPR

SMILES	IC50 [1] [µM]	IC50 [2] [nM]	IC50 [3] [µM]	solubility [4] [µg/mL]	logP [5]	Activity (Cytochrome P450 3A4)	Ratio (Caco-2 [6])	Activity (Cytochrome P450 2C9)	half-life [7] [min]	Ratio (Caco-2 [8])	Papp [9] [×10⁻⁶ cm/s]	clearance [10] [mL/min/kg]	Activity (Cytochrome P450 2D6)
CCCS(=O)(=O)N1CCC(CNC(=O)c2ccc(Cl)cc2Cl)(C(=O)N(C)C)CC1	> 30	181	> 30										
CCCS(=O)(=O)N1CCC(CNC(=O)c2ccc(Cl)cc2Cl)(C(=O)N2CCN(C)CC2)CC1	> 30	> 5000	> 30										
CCCS(=O)(=O)N1CCC(CNC(=O)c2ccc(C(F)(F)F)cc2F)(C(=O)N2CCOCC2)CC1	> 30	42.8	> 30	10000 (≈ 19.1 mM)	< 1.4	Not Active	10.6	Not Active	18	8.9	> 22	18	Not Active
CCCS(=O)(=O)N1CCC(CNC(=O)c2ccc(Cl)cc2Cl)(C(=O)N2CCC(N(C)C)C2)CC1 (centres undefined)	> 30	544	> 30										
CCCS(=O)(=O)N1CCC(CNC(=O)c2ccc(Cl)cc2Cl)(C(=O)NCC2(C)COC2)CC1	> 30	69	> 30										
CCCS(=O)(=O)N1CCC(C(=O)N2CCOCC2)([C@H](C)NC(=O)c2ccc(Cl)cc2Cl)CC1		> 5000											
CCCS(=O)(=O)N1CCC(CNC(=O)c2ccc(Cl)cc2Cl)(C(=O)C2CC2)CC1	> 30	472	> 30										
CCCS(=O)(=O)N1CCC(CNC(=O)c2ccc(Cl)cc2Cl)(C(=O)N2CC(N)C2)CC1	> 30	109	> 30										
CCCS(=O)(=O)N1CCC(CNC(=O)C2CC2)(C(=O)N2CCOCC2)CC1	> 30	> 5000	> 30	10000 (≈ 24.9 mM)	< 1.4	Not Active	10.6	Not Active	18	8.9	> 22	18	Not Active
CCCS(=O)(=O)N1CCC(C(=O)N2CCOCC2)([C@@H](C)NC(=O)c2ccc(Cl)cc2Cl)CC1		> 5000											
CCCS(=O)(=O)N1CCC(CNC(=O)c2ccc(F)cc2C(F)(F)F)(C(=O)N2CCOCC2)CC1	> 30	67.8	> 30	10000 (≈ 19.1 mM)	< 1.4	Not Active	10.6	Not Active	18	8.9	> 22	18	Not Active
CCCS(=O)(=O)N1CCC(CNC(=O)c2c(F)cccc2F)(C(=O)N2CCOCC2)CC1	> 30	131	> 30	10000 (≈ 21.1 mM)	< 1.4	Not Active	10.6	Not Active	18	8.9	> 22	18	Not Active
CCCS(=O)(=O)N1CCC(CNC(=O)c2ccc(Cl)cc2Cl)(C(=O)NCC)CC1	> 30	517	> 30										
CCCS(=O)(=O)N1CCC(CNC(=O)c2ccccc2OC(F)(F)F)(C(=O)N2CCOCC2)CC1	> 30	88.4	> 30	10000 (≈ 19.2 mM)	< 1.4	Not Active	10.6	Not Active	18	8.9	> 22	18	Not Active
CCCS(=O)(=O)N1CCC(CNC(=O)c2ccccc2)(C(=O)N2CCOCC2)CC1	> 30	264	> 30	10000 (≈ 22.9 mM)	< 1.4	Not Active	10.6	Not Active	18	8.9	> 22	18	Not Active
CCCS(=O)(=O)N1CCC(CNC(=O)CC)(C(=O)N2CCOCC2)CC1	> 30	> 5000	> 30	10000 (≈ 25.7 mM)	< 1.4	Not Active	10.6	Not Active	18	8.9	> 22	18	Not Active
